Data reported in patent publication US20240092835A1, “NOVEL PEPTIDES CAPABLE OF ALTERING NK CELL ACTIVITY” (Massachusetts Institute of Technology, priority 2022, published 2024).

Key:
NKG2A−/NKG2C+ NK cells = experiment: NK cell activation markers in NKG2A-/NKG2C+ NK cells incubated with peptide and K562 expressing HLA-E (activation); format: cell-based, human; settings: for effect on NKG2A−/NKG2C+ NK cell activation (in words): K562 expressing HLA-E, CD107a, IFNG, TNF, CCL3; for percentage of CCL3+ NK cells / percentage of CD107+ NK cells / percentage of IFNG+ NK cells / percentage of TNF+ NK cells: NKG2A-/NKG2C+ NK cells, K562/HLA-E
In short: (§1)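 Read-out: % NK cells positive for surface activation markers; a rise indicates activation, a fall indicates inhibition. Targets were K562 cells expressing HLA-E, loaded with human- or HCMV-proteome-derived peptides.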

NKG2A−/NKG2C− NK cells = experiment: NK cell activation markers in control NKG2A-/NKG2C- NK cells incubated with peptide and K562 expressing HLA-E; format: cell-based, human
In short: as §1

NKG2A+/NKG2C− NK cells = experiment: NK cell activation markers in NKG2A+/NKG2C- NK cells incubated with peptide and K562 expressing HLA-E (inhibition); format: cell-based, human; settings: for percentage of CCL3+ NK cells / percentage of CD107a+ NK cells / percentage of IFNG+ NK cells / percentage of TNF+ NK cells: NKG2A+/NKG2C- NK cells, K562/HLA-E
In short: as §1

HLA-E = target: T1, HLA-E (Homo sapiens, UniProt P13747); experiment: HLA-E surface stabilization assay with RMA-S/HLA-E cells; format: cell-based; settings: 30 μM peptide, 16 hours, anti-HLA-E antibody
T1 construct: expressed in transfected cells; host or cells: RMA-S/HLA-E cells (antigen processing-defective lymphoma cell line)
Experimental: HLA-E surface expression was assessed by measuring geometric mean fluorescence intensity (GeoMFI) in RMA-S cells following immunofluorescence staining with an anti-HLA-E antibody (Table 14). Increased GeoMFI was indicative of increased HLA-E surface expression stability following novel peptide exposures (FIG. 3).

T1 sequence (P13747 22-358): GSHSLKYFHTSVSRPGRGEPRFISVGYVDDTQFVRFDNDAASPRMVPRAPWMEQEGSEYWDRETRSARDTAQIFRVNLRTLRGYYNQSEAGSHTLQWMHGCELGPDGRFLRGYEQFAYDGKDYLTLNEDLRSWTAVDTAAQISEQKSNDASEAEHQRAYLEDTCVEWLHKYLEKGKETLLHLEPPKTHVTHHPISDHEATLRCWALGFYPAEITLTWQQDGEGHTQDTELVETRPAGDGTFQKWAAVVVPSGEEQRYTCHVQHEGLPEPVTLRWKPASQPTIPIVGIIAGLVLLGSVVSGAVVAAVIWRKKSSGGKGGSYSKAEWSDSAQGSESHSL
T1 sequence (P61769 21-119 partner): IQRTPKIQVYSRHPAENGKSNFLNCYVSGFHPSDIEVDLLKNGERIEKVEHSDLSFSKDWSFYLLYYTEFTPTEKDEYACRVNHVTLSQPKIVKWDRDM

## TLPERTLYL [human7, peptide ECEL1 269-277 derived from the human proteome]
NKG2A−/NKG2C+ NK cells; listed as SEQ ID NO. 11
  effect on NKG2A−/NKG2C+ NK cell activation (in words): strong activating effects
NKG2A−/NKG2C+ NK cells; listed as h7
  effect on NKG2A−/NKG2C+ NK cell activation (in words): strong inhibitory and activating effects
NKG2A−/NKG2C+ NK cells; Trial 1
  percentage of CCL3+ NK cells: 77%
  percentage of CD107+ NK cells: 76.2%
  percentage of IFNG+ NK cells: 66.6%
  percentage of TNF+ NK cells: 54.5%
NKG2A−/NKG2C+ NK cells; Trial 2
  percentage of CCL3+ NK cells: 92.4%
  percentage of CD107+ NK cells: 89.5%
  percentage of IFNG+ NK cells: 87.3%
  percentage of TNF+ NK cells: 79.9%
NKG2A−/NKG2C+ NK cells; Trial 3
  percentage of CCL3+ NK cells: 87.5%
  percentage of CD107+ NK cells: 87.7%
  percentage of IFNG+ NK cells: 79.8%
  percentage of TNF+ NK cells: 70.1%
NKG2A−/NKG2C+ NK cells; Trial 4
  percentage of CCL3+ NK cells: 61.5%
  percentage of CD107+ NK cells: 63.2%
  percentage of IFNG+ NK cells: 54.1%
  percentage of TNF+ NK cells: 47.8%
NKG2A−/NKG2C+ NK cells; Trial 5
  percentage of CCL3+ NK cells: 77.3%
  percentage of CD107+ NK cells: 76.5%
  percentage of IFNG+ NK cells: 70%
  percentage of TNF+ NK cells: 66.1%
NKG2A−/NKG2C+ NK cells; Trial 6
  percentage of CCL3+ NK cells: 55.6%
  percentage of CD107+ NK cells: 55.3%
  percentage of IFNG+ NK cells: 45.4%
  percentage of TNF+ NK cells: 37.8%
NKG2A−/NKG2C− NK cells; Trial 1
  percentage CCL3+ NK cells: 30.7%
  percentage CD107+ NK cells: 21.8%
  percentage TNF+ NK cells: 4.13%
  percentage of IFNG+ NK cells: 13.3%
NKG2A−/NKG2C− NK cells; Trial 2
  percentage CCL3+ NK cells: 49.5%
  percentage CD107+ NK cells: 27.4%
  percentage TNF+ NK cells: 7.88%
  percentage of IFNG+ NK cells: 23.4%
NKG2A−/NKG2C− NK cells; Trial 3
  percentage CCL3+ NK cells: 47%
  percentage CD107+ NK cells: 41.8%
  percentage TNF+ NK cells: 14.2%
  percentage of IFNG+ NK cells: 34.9%
NKG2A−/NKG2C− NK cells; Trial 4
  percentage CCL3+ NK cells: 27.4%
  percentage CD107+ NK cells: 24%
  percentage TNF+ NK cells: 7.92%
  percentage of IFNG+ NK cells: 16.4%
NKG2A−/NKG2C− NK cells; Trial 5
  percentage CCL3+ NK cells: 22.9%
  percentage CD107+ NK cells: 17.2%
  percentage TNF+ NK cells: 5.21%
  percentage of IFNG+ NK cells: 12.7%
NKG2A−/NKG2C− NK cells; Trial 6
  percentage CCL3+ NK cells: 22.6%
  percentage CD107+ NK cells: 20.5%
  percentage TNF+ NK cells: 4.34%
  percentage of IFNG+ NK cells: 10.9%
NKG2A+/NKG2C− NK cells; K562 expressing HLA-E, CD107a, IFNG, TNF, CCL3
  effect on NKG2A+/NKG2C− NK cell inhibition (in words): strong inhibitory
NKG2A+/NKG2C− NK cells; Trial 1
  percentage of CCL3+ NK cells: 1.37%
  percentage of CD107a+ NK cells: 0.52%
  percentage of IFNG+ NK cells: 0.13%
  percentage of TNF+ NK cells: 0.05%
NKG2A+/NKG2C− NK cells; Trial 2
  percentage of CCL3+ NK cells: 1.85%
  percentage of CD107a+ NK cells: 0.72%
  percentage of IFNG+ NK cells: 0.21%
  percentage of TNF+ NK cells: 0.11%
NKG2A+/NKG2C− NK cells; Trial 3
  percentage of CCL3+ NK cells: 1.62%
  percentage of CD107a+ NK cells: 0.59%
  percentage of IFNG+ NK cells: 0.49%
  percentage of TNF+ NK cells: 0.1%
NKG2A+/NKG2C− NK cells; Trial 4
  percentage of CCL3+ NK cells: 0.64%
  percentage of CD107a+ NK cells: 0.71%
  percentage of IFNG+ NK cells: 0.16%
  percentage of TNF+ NK cells: 0.08%
NKG2A+/NKG2C− NK cells; Trial 5
  percentage of CCL3+ NK cells: 1.26%
  percentage of CD107a+ NK cells: 0.64%
  percentage of IFNG+ NK cells: 0.28%
  percentage of TNF+ NK cells: 0.18%
NKG2A+/NKG2C− NK cells; Trial 6
  percentage of CCL3+ NK cells: 2.68%
  percentage of CD107a+ NK cells: 1.96%
  percentage of IFNG+ NK cells: 0.67%
  percentage of TNF+ NK cells: 0.38%
HLA-E; Trial 1
  HLA-E surface expression stability (GeoMFI): 3203 GeoMFI
HLA-E; Trial 2
  HLA-E surface expression stability (GeoMFI): 3535 GeoMFI
HLA-E; Trial 3
  HLA-E surface expression stability (GeoMFI): 3903 GeoMFI
HLA-E; Trial 4
  HLA-E surface expression stability (GeoMFI): 4464 GeoMFI
